From patent US20230107642A1 (Erasca, Inc., priority 2020, published 2023) come the findings set out here.

Molecules are shown by their SMILES.

The first assay concerns the target T1, Cys12 of the KRAS 4B G12C protein (Homo sapiens, UniProt P01116, G12C).
T1 construct: This protein contained 188 amino acids in total, including an N-terminal 6-Histidine tag; made in house; host or cells: E. coli BL21
The assay can be described thus: In vitro covalent adduct formation (CAF) assay, LC-MS intact mass. The assay is classed as binding. The following applies: 10 uM compound, 60 min. In short, it runs like this: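 Percent covalent modification from intact-mass LC-MS, by relative free versus adducted protein (adducts within 1 Da of expected mass). Reaction: 10 μM compound with 5 μM E. coli-expressed, GDP-exchanged KRAS 4B G12C in TBS pH 7.4, 4% DMSO, 1 h at 22° C.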
With `C=CC(=O)N1[C@H](C)CN(c2nc(=O)n3c4c(c(-c5ccc(F)cc5F)c(C(F)(F)F)cc24)SC[C@@H]3CN(C)C)C[C@@H]1C` (atropisomer, axis not shown) [Example 1324, (3S,10R)-7-((3S,5R)-4-acryloyl-3,5-dimethylpiperazin-1-yl)-10-(2,4-difluorophenyl)-3-((dimethylamino)methyl)-9-(trifluoromethyl)-2,3-dihydro-5H-[1,4]thiazino[2,3,4-ij]quinazolin-5-one], the “% CAF 10 uM @ 60 min” value was 82.2%.
In the case of `C=CC(=O)N1C2CCC1CN(c1nc(=O)n3c4c(c(-c5cc(Cl)c(F)cc5F)c(C(F)(F)F)cc14)SCC1(COC1)C3)C2` [Example 1401, (R)-8′-((1R,5S)-8-acryloyl-3,8-diazabicyclo[3.2.1]octan-3-yl)-11′-(5-chloro-2,4-difluorophenyl)-10′-(trifluoromethyl)-2′H,4′H,6′H-spiro[oxetane-3,3′-[1,4]thiazepino[2,3,4-ij]quinazolin]-6′-one], the “% CAF 10 uM @ 60 min” value is recorded as 76.6%.
In the case of `[2H]C([2H])=C([2H])C(=O)N1[C@H](C)CN(c2nc(=O)n3c4c(c(-c5cc(Cl)c(F)cc5F)c(C(F)(F)F)cc24)SC[C@@H]3COC)C[C@@H]1C` (atropisomer, axis not shown) [Example 1393, (3S,10R)-7-((3S,5R)-4-(acryloyl-d3)-3,5-dimethylpiperazin-1-yl)-10-(5-chloro-2,4-difluorophenyl)-3-(methoxymethyl)-9-(trifluoromethyl)-2,3-dihydro-5H-[1,4]thiazino[2,3,4-ij]quinazolin-5-one], the “% CAF 10 uM @ 60 min” value was 95.4%.
On to `C=CC(=O)N1[C@H](C)CN(c2nc(=O)n3c4c(c(-c5cccc6cnn(C)c56)c(C(F)(F)F)cc24)SC[C@@H]3CN2CCN(CC)CC2)C[C@@H]1C` (atropisomer, axis not shown) [Example 1389, (3S,10S)-7-((3S,5R)-4-acryloyl-3,5-dimethylpiperazin-1-yl)-3-((4-ethylpiperazin-1-yl)methyl)-10-(1-methyl-1H-indazol-7-yl)-9-(trifluoromethyl)-2,3-dihydro-5H-[1,4]thiazino[2,3,4-ij]quinazolin-5-one], for which the “% CAF 10 uM @ 60 min” value is 69.1%.
For `C=CC(=O)N1C2CCC1CN(c1nc(=O)n3c4c(c(-c5cc(Cl)c(F)cc5F)c(C(F)(F)F)cc14)SC[C@@H]3COC)C2` [Example 1395, (3S,10S)-7-((1R,5S)-8-acryloyl-3,8-diazabicyclo[3.2.1]octan-3-yl)-10-(5-chloro-2,4-difluorophenyl)-3-(methoxymethyl)-9-(trifluoromethyl)-2,3-dihydro-5H-[1,4]thiazino[2,3,4-ij]quinazolin-5-one], the “% CAF 10 uM @ 60 min” value came out at 17.3%.
On the same count and under the same terms, under `C=CC(=O)N1[C@H](C)CN(c2nc(=O)n3c4c(c(-c5ccc(F)cc5F)c(C(F)(F)F)cc24)SC[C@@H]3CC)C[C@@H]1C` [Example 1451, (3S)-7-((3S,5R)-4-acryloyl-3,5-dimethylpiperazin-1-yl)-10-(2,4-difluorophenyl)-3-ethyl-9-(trifluoromethyl)-2,3-dihydro-5H-[1,4]thiazino[2,3,4-ij]quinazolin-5-one] stands 95%.

Still in this assay, the particulars now being: 10 uM compound, 60 min incubation.
On to `C=CC(=O)N1[C@H](C)CN(c2nc(=O)n3c4c(c(-c5cc(Cl)c(F)cc5F)c(C(F)(F)F)cc24)SC[C@H](N2CCOCC2)C3)C[C@@H]1C` (atropisomer, axis not shown) [Example 1115, (3R,11S)-8-((3S,5R)-4-acryloyl-3,5-dimethylpiperazin-1-yl)-11-(5-chloro-2,4-difluorophenyl)-3-morpholino-10-(trifluoromethyl)-3,4-dihydro-2H,6H-[1,4]thiazepino [2,3,4-ij]quinazolin-6-one], for which the “% CAF 10 uM @ 60 min” value is reported as 42.5%.
Turning to `C=CC(=O)N1[C@H](C)CN(c2nc(=O)n3c4c(c(-c5cc(Cl)c(F)cc5F)c(C(F)(F)F)cc24)SCC2(COC2)C3)C[C@@H]1C` (atropisomer, axis not shown) [Example 1124, (R)-8′-((3S,5R)-4-acryloyl-3,5-dimethylpiperazin-1-yl)-11′-(5-chloro-2,4-difluorophenyl)-10′-(trifluoromethyl)-2′H,4′H,6′H-spiro[oxetane-3,3′-[1,4]thiazepino [2,3,4-ij]quinazolin]-6′-one], the “% CAF 10 uM @ 60 min” value was 96.2%.
As for `C=CC(=O)N1[C@H](C)CN(c2nc(=O)n3c4c(c(-c5cc(Cl)c(F)cc5F)c(C(F)(F)F)cc24)SC[C@H](N2CCOCC2)C3)C[C@@H]1C` [Example 1105, (3R)-8-((3S,5R)-4-acryloyl-3,5-dimethylpiperazin-1-yl)-11-(5-chloro-2,4-difluorophenyl)-3-morpholino-10-(trifluoromethyl)-3,4-dihydro-2H,6H-[1,4]thiazepino [2,3,4-ij]quinazolin-6-one], the “% CAF 10 uM @ 60 min” value is 95.6%.
Turning to `C=CC(=O)N1[C@H](C)CN(c2nc(=O)n3c4c(c(-c5cccc6cnn(C)c56)c(C(F)(F)F)cc24)SCC2(COC2)C3)C[C@@H]1C` (atropisomer, axis not shown) [Example 1133, (R)-8′-((3S,5R)-4-acryloyl-3,5-dimethylpiperazin-1-yl)-11′-(1-methyl-1H-indazol-7-yl)-10′-(trifluoromethyl)-2′H,4′H,6′H-spiro[oxetane-3,3′-[1,4]thiazepino [2,3,4-ij]quinazolin]-6′-one], the “% CAF 10 uM @ 60 min” value came to 54.1%.

Staying with this assay, now noted: 10 μM compound, after 1 hour.
`C=CC(=O)N1[C@H](C)CN(c2nc(=O)n3c4c(c(-c5ccc(F)cc5)c(C(F)(F)F)cc24)SC[C@@H](OCC(=O)N(C)C)C3)C[C@@H]1C` [Example 1232, 2-(((S)-8-((3S,5R)-4-acryloyl-3,5-dimethylpiperazin-1-yl)-11-(4-fluorophenyl)-6-oxo-10-(trifluoromethyl)-3,4-dihydro-2H,6H-[1,4]thiazepino[2,3,4-ij]quinazolin-3-yl)oxy)-N,N-dimethylacetamide]: the “CAF (% after 1 hour)” value is on record as 93%.
On the same count and under the same terms, then `C=CC(=O)N1[C@H](C)CN(c2nc(=O)n3c4c(c(-c5ccc(F)cc5)c(C(F)(F)F)cc24)SC[C@@H](OCC)C3)C[C@@H]1C` [Example 1203, (S)-8-((3S,5R)-4-acryloyl-3,5-dimethylpiperazin-1-yl)-3-ethoxy-11-(4-fluorophenyl)-10-(trifluoromethyl)-3,4-dihydro-2H,6H-[1,4]thiazepino[2,3,4-ij]quinazolin-6-one], with 95%.
Still for that read-out and setting: under `C=CC(=O)N1[C@H](C)CN(c2nc(=O)n3c4c(c(-c5nc(C(F)(F)F)cs5)c(C(F)(F)F)cc24)SC[C@@H](OC)C3)C[C@@H]1C` [Example 1208, (S)-8-((3S,5R)-4-acryloyl-3,5-dimethylpiperazin-1-yl)-3-methoxy-10-(trifluoromethyl)-11-(4-(trifluoromethyl)thiazol-2-yl)-3,4-dihydro-2H,6H-[1,4]thiazepino[2,3,4-ij]quinazolin-6-one] stands 95%.

Staying with this assay, now noted: after 60 min.
`C=CC(=O)N1[C@H](C)CN(c2nc(=O)n3c4c(c(-c5ccc(F)cc5)c(C(F)(F)F)cc24)SC[C@H](OCCOC)C3)C[C@@H]1C` [Example 1024, (R)-8-((3S,5R)-4-acryloyl-3,5-dimethylpiperazin-1-yl)-11-(4-fluorophenyl)-3-(2-methoxyethoxy)-10-(trifluoromethyl)-3,4-dihydro-2H,6H-[1,4]thiazepino[2,3,4-ij]quinazolin-6-one]: the “CAF (% binding after 60 min)” value amounted to 97%.
Take `C=CC(=O)N1[C@H](C)CN(c2nc(=O)n3c4c(c(-c5ccc(F)c(Cl)c5)c(C(F)(F)F)cc24)SC[C@H](OCCOC)C3)C[C@@H]1C` [Example 1028, (R)-8-((3S,5R)-4-acryloyl-3,5-dimethylpiperazin-1-yl)-11-(3-chloro-4-fluorophenyl)-3-(2-methoxyethoxy)-10-(trifluoromethyl)-3,4-dihydro-2H,6H-[1,4]thiazepino[2,3,4-ij]quinazolin-6-one]: the “CAF (% binding after 60 min)” value is 96%.
`C=CC(=O)N1[C@H](C)CN(c2nc(=O)n3c4c(c(-c5ccc(F)cc5)c(C(F)(F)F)cc24)SC[C@@H](N)C3)C[C@@H]1C` [Example 1032, (S)-8-((3S,5R)-4-acryloyl-3,5-dimethylpiperazin-1-yl)-3-amino-11-(4-fluorophenyl)-10-(trifluoromethyl)-3,4-dihydro-2H,6H-[1,4]thiazepino[2,3,4-ij]quinazolin-6-one]: the “CAF (% binding after 60 min)” value was found to be 92%.
The same measure, in the same setting: then `C=CC(=O)N1CCN(c2nc(=O)n3c4c(c(-c5ccc(F)c(Cl)c5)c(C(F)(F)F)cc24)SC[C@@H](OCOC)C3)CC1` [Example 1007, (S)-8-(4-acryloylpiperazin-1-yl)-11-(3-chloro-4-fluorophenyl)-3-(methoxymethoxy)-10-(trifluoromethyl)-3,4-dihydro-2H,6H-[1,4]thiazepino[2,3,4-ij]quinazolin-6-one], with 97%.
Turning to `C=CC(=O)N1[C@H](C)CN(c2nc(=O)n3c4c(c(-c5ccc(F)cc5F)c(C(F)(F)F)cc24)SC[C@@H](OCCOC)C3)C[C@@H]1C` [Example 1027, (3S)-8-((3S,5R)-4-acryloyl-3,5-dimethylpiperazin-1-yl)-11-(2,4-difluorophenyl)-3-(2-methoxyethoxy)-10-(trifluoromethyl)-3,4-dihydro-2H,6H-[1,4]thiazepino[2,3,4-ij]quinazolin-6-one 3,4-dihydro-2H,6H-[1,4]thiazepino[2,3,4-ij]quinazolin-6-one], the “CAF (% binding after 60 min)” value came to 96%.
As for `C=CC(=O)N1CCN(c2nc(=O)n3c4c(c(-c5ccc(F)cc5)c(C(F)(F)F)cc24)SC[C@H](OC)C3)CC1` [Example 1037, (R)-8-(4-acryloylpiperazin-1-yl)-11-(4-fluorophenyl)-3-methoxy-10-(trifluoromethyl)-3,4-dihydro-2H,6H-[1,4]thiazepino[2,3,4-ij]quinazolin-6-one], the “CAF (% binding after 60 min)” value turned out to be 96%.
